Reference: PubChem BioAssay AID1919005 (Molecular Pharmacology Branch, DTP, NCI, 2023)

Tested on: 855422-203-R-J1-PDC complex spheroid growth
Assay: Anticancer human tumor 855422-203-R-J1-PDC patient-derived bladder carcinoma cell line growth inhibition [AhR]
Conditions: for IC50: curve of first compound; for viability, T/C: stronger effect = lower value
In short: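 Complex tumor spheroids co-cultured with HUVEC and human MSC stroma; AhR antagonists tested in combination with standard-of-care and investigational agents. Top concentration at or near clinical Cmax (else 10 microM), half-log dilutions; growth expressed as percent test/control.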

[1] = second compound 0.1 µM, first compound 0.0316 µM
[2] = second compound 0.1 µM, first compound 0.1 µM
[3] = second compound 0.1 µM, first compound 0.316 µM
[4] = second compound 0.1 µM, first compound 1 µM
[5] = second compound 0.1 µM, first compound 3.16 µM
[6] = second compound 0.1 µM, first compound 10 µM
[7] = second compound 0.316 µM, first compound 0.0316 µM
[8] = second compound 0.316 µM, first compound 0.1 µM
[9] = second compound 0.316 µM, first compound 0.316 µM
[10] = second compound 0.316 µM, first compound 1 µM
[11] = second compound 0.316 µM, first compound 3.16 µM
[12] = second compound 0.316 µM, first compound 10 µM
[13] = second compound 1 µM, first compound 0.0316 µM
[14] = second compound 1 µM, first compound 0.1 µM
[15] = second compound 1 µM, first compound 0.316 µM
[16] = second compound 1 µM, first compound 1 µM
[17] = second compound 1 µM, first compound 3.16 µM
[18] = second compound 1 µM, first compound 10 µM
[19] = second compound 3.16 µM, first compound 0.0316 µM
[20] = second compound 3.16 µM, first compound 0.1 µM
[21] = second compound 3.16 µM, first compound 0.316 µM
[22] = second compound 3.16 µM, first compound 1 µM
[23] = second compound 3.16 µM, first compound 3.16 µM
[24] = second compound 3.16 µM, first compound 10 µM
[25] = second compound 10 µM, first compound 0.0316 µM
[26] = second compound 10 µM, first compound 0.1 µM
[27] = second compound 10 µM, first compound 0.316 µM
[28] = second compound 10 µM, first compound 1 µM
[29] = second compound 10 µM, first compound 3.16 µM
[30] = second compound 10 µM, first compound 10 µM
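Note: spheroids exposed to agents for seven days before readout.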
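Throughout, for viability, T/C: percent of DMSO vehicle control luminescence viability.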

| Compound | IC50 (second compound 0.1 µM) [nM] | IC50 (second compound 0.316 µM) [nM] | IC50 (second compound 1 µM) [nM] | IC50 (second compound 3.16 µM) [nM] | IC50 (second compound 10 µM) [nM] | viability, T/C [1] [%] | viability, T/C [2] [%] | viability, T/C [3] [%] | viability, T/C [4] [%] | viability, T/C [7] [%] | viability, T/C [8] [%] | viability, T/C [9] [%] | viability, T/C [10] [%] | viability, T/C [13] [%] | viability, T/C [14] [%] | viability, T/C [15] [%] | viability, T/C [16] [%] | viability, T/C [19] [%] | viability, T/C [20] [%] | viability, T/C [21] [%] | further results |
| --- | --- | --- | --- | --- | --- | --- | --- | --- | --- | --- | --- | --- | --- | --- | --- | --- | --- | --- | --- | --- | --- |
| CC(C)c1c(-c2ccccc2)nc2c(C#N)c[nH]n2c1=O + Cc1cncc(-c2nc(NCCc3c[nH]c4ccccc34)c3ncn(C(C)C)c3n2)c1 | > 10000 | > 10000 | > 10000 | > 10000 | < 31.6 | 112 | 91.1 | 104 | 95.9 | 90.1 | 97.2 | 83.8 | 82.5 | 82.7 | 92.1 | 90 | 74.3 | 78.6 | 87.2 | 84.1 | viability, T/C [5]: 94.2%; viability, T/C [6]: 78.8%; viability, T/C [11]: 75.4%; viability, T/C [12]: 78.1%; viability, T/C [17]: 76.4%; viability, T/C [18]: 72.1%; viability, T/C [22]: 57%; viability, T/C [23]: 68.9%; viability, T/C [24]: 63.9%; viability, T/C [25]: 5.73%; viability, T/C [26]: 5.87%; viability, T/C [27]: 2.84%; viability, T/C [28]: 1.09%; viability, T/C [29]: 3.05%; viability, T/C [30]: 4.37% |
| CC1COCCN1c1cc(-c2ccnn2C)c2ccnc(-c3ccn[nH]3)c2n1 (stereo not given) + Cc1cncc(-c2nc(NCCc3c[nH]c4ccccc34)c3ncn(C(C)C)c3n2)c1 | 254 | 405 | 361 | 80.4 | < 3.16 | 93.6 | 97.8 | 39.9 | 12.7 | 74.9 | 85.6 | 60.6 | 11.1 | 85.5 | 71.4 | 55.6 | 10.7 | 63 | 28.6 | 50.5 | viability, T/C (second compound 0.1 µM, first compound 0.00316 µM): 83.7%; viability, T/C (second compound 0.1 µM, first compound 0.01 µM): 96.2%; viability, T/C (second compound 0.316 µM, first compound 0.00316 µM): 91.3%; viability, T/C (second compound 0.316 µM, first compound 0.01 µM): 91.1%; viability, T/C (second compound 1 µM, first compound 0.00316 µM): 77.2%; viability, T/C (second compound 1 µM, first compound 0.01 µM): 79.9%; viability, T/C (second compound 3.16 µM, first compound 0.00316 µM): 75.6%; viability, T/C (second compound 3.16 µM, first compound 0.01 µM): 77.2%; viability, T/C [22]: 9.55%; viability, T/C (second compound 10 µM, first compound 0.00316 µM): 3.1%; viability, T/C (second compound 10 µM, first compound 0.01 µM): 4.56%; viability, T/C [25]: 3.12%; viability, T/C [26]: 6.41%; viability, T/C [27]: 2.62%; viability, T/C [28]: 1.62% |
| COc1ccc([C@@H](O)c2cc(-c3ncnc4cc(N5CCOCC5)ccc34)c(F)cc2Cl)nn1 + Cc1cncc(-c2nc(NCCc3c[nH]c4ccccc34)c3ncn(C(C)C)c3n2)c1 | > 10000 | 9440 | 6090 | 2410 | < 31.6 | 101 | 90.6 | 93.7 | 83.8 | 97.1 | 88.6 | 77.2 | 86.8 | 90.5 | 94.6 | 79.9 | 74.5 | 79.5 | 85.6 | 67.2 | viability, T/C [5]: 76.7%; viability, T/C [6]: 50.9%; viability, T/C [11]: 74.5%; viability, T/C [12]: 47.8%; viability, T/C [17]: 69.1%; viability, T/C [18]: 37.6%; viability, T/C [22]: 54.7%; viability, T/C [23]: 52.6%; viability, T/C [24]: 27.9%; viability, T/C [25]: 6.06%; viability, T/C [26]: 3.37%; viability, T/C [27]: 1.79%; viability, T/C [28]: 0.4%; viability, T/C [29]: 6.5%; viability, T/C [30]: 9.38% |
